US8148391B2 (Cephalon, Inc., priority 2006, dated 2012)
Like-named read-outs stand apart in the source and are kept apart here. One block for each compound: values may come before it.

Assays:
[1] = target: T1, c-Met (cytoplasmic domain) (Homo sapiens, UniProt P08581); experiment: c-Met Kinase Assay (same methods as for ALK, with modifications); assay type: biochemical
T1 construct: 10 ng/mL c-Met (cytoplasmic domain, Invitrogen Corporation #PV3143); purchased Invitrogen Corporation PV3143
Procedure, shortened: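 Plates were coated with phospholipase C-γ substrate (10 μg/mL) in TBS, and the reaction was started with 10 ng/mL c-Met cytoplasmic domain and run 15 min at 37 °C. Phosphoproduct was detected with Eu-N1-labelled PT66 antibody. IC50 came from a variable-slope sigmoidal fit of percent inhibition vs log concentration.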

[2] = target: T2, baculovirus-expressed ALK (Homo sapiens, UniProt Q9UM73); experiment: ALK Kinase Assay (ELISA-type, time-resolved fluorescence); assay type: biochemical
T2 construct: host or cells: baculovirus expression system
T2 sequence (Q9UM73 19-1620): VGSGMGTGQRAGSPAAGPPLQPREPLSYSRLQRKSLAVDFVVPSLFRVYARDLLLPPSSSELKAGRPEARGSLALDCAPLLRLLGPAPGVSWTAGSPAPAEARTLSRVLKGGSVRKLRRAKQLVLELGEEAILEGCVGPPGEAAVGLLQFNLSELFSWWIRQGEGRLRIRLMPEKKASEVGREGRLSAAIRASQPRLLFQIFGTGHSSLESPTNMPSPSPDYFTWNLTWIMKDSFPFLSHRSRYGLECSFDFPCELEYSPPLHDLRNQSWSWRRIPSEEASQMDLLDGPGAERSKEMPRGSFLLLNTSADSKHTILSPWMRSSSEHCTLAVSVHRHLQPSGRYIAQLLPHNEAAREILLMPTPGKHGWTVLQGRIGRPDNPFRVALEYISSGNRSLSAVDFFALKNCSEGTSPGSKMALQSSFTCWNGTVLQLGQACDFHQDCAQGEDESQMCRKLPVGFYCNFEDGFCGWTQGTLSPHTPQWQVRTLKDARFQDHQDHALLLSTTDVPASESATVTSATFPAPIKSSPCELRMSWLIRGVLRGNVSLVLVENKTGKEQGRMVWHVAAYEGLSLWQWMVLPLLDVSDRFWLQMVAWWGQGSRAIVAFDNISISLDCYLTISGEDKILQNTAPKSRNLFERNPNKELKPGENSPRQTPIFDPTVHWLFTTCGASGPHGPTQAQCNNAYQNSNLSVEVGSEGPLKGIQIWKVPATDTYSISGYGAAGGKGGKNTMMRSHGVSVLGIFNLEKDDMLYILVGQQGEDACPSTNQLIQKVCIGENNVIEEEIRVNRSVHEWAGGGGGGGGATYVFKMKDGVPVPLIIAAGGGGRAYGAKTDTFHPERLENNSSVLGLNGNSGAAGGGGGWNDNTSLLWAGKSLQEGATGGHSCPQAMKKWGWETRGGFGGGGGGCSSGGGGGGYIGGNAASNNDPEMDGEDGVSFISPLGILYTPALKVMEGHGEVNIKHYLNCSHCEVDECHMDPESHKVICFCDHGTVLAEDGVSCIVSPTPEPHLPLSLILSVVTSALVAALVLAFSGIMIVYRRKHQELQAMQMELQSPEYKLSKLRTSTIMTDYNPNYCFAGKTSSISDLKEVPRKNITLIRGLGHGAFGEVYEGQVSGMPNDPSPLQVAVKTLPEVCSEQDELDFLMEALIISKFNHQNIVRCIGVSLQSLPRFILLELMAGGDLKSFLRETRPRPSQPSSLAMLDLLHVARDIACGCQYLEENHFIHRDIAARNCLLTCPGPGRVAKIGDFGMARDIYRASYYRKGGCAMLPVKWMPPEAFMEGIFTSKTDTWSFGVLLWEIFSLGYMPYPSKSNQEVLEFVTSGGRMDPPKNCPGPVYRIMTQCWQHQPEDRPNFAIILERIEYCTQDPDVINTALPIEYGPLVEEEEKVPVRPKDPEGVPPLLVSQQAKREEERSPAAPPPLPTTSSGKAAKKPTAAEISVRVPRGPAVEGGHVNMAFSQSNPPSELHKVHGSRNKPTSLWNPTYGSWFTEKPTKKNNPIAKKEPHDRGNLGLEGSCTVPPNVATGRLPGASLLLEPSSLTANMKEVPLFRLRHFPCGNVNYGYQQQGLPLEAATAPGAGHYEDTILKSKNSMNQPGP
Procedure, shortened: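 Plates coated with phospholipase C-γ substrate (10 μg/mL in TBS); reaction started with 30 ng/ml ALK and run 15 min at 37° C. Phosphorylated substrate detected with Eu-N1-labeled PT66 antibody. IC50 from sigmoidal variable-slope fit of percent inhibition vs log concentration.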

[3] = 1 μM ATP (Km level), read-out: cMet Activity (c-Met Kinase Inhibition, IC50)
[4] = 1 μM ATP (Km level), read-out: ALK Activity (ALK Kinase Inhibition, IC50)
[5] = c-Met kinase inhibition, 1 μM ATP (Km level), read-out: cMet Activity
[6] = ALK kinase inhibition, 1 μM ATP (Km level), read-out: ALK Activity
[7] = c-Met kinase inhibition, 1 μM ATP, read-out: cMet Activity
[8] = ALK kinase inhibition, 1 μM ATP, read-out: ALK Activity
[9] = 1 μM ATP (Km level), 10 ng/mL c-Met, read-out: cMet Activity (c-Met kinase inhibition, IC50 class)
[10] = 1 μM ATP (Km level), 30 ng/ml ALK, 37° C., 15 minutes, read-out: ALK Activity (ALK kinase inhibition, IC50 class)

T1 sequence (P08581 956-1390 limits assumed): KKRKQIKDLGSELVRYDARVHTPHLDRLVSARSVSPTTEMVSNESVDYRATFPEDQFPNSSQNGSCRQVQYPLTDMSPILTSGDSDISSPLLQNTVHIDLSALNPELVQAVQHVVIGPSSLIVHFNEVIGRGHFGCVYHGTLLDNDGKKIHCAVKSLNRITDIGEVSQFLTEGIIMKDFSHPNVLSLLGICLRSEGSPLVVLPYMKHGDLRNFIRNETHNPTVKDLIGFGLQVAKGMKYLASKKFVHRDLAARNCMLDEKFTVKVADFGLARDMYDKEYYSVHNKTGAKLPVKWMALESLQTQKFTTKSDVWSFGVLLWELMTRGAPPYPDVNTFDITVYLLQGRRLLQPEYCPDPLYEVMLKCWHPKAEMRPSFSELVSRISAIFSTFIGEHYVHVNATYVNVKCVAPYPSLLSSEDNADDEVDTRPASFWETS

IC50 [1, 3]: > 10000 nM | IC50 [2, 4]: < 100 nM
Compound: COc1cc2c(cc1Nc1ncc(Cl)c(N[C@H]3[C@@H](C(N)=O)[C@@H]4C=C[C@H]3C4)n1)CCN(C(=O)C1COCCO1)CC2 (stereo partly drawn) [Example 635, (1S,2S,3R,4R)-3-{5-Chloro-2-[3-([1,4]dioxane-2-carbonyl)-8-methoxy-2,3,4,5-tetrahydro-1H-benzo[d]azepin-7-ylamino]-pyrimidin-4-ylamino}-bicyclo[2.2.1]hept-5-ene-2-carboxylic acid amide]

IC50 [1, 3]: 100 to 1000 nM | IC50 [2, 4]: < 100 nM
Compound: (1S,2S,3R,4R)-3-{5-Chloro-2-[7-(4-methyl-piperazin-1-yl)-6,7,8,9-tetrahydro-5H-benzocyclohepten-2-ylamino]-pyrimidin-4-ylamino}-bicyclo[2.2.1]hept-5-ene-2-carboxylic acid amide [Example 893]

IC50 [1, 5]: < 100 nM | IC50 [2, 6]: < 100 nM
Compound: CNC(=O)c1ccccc1Nc1nc(Nc2ccc3c(c2)CNC(=O)NC3)ncc1Cl [Example 227, 2-[5-Chloro-2-(3-oxo-2,3,4,5-tetrahydro-1H-benzo[e][1,3]diazepin-7-ylamino)-pyrimidin-4-ylamino]-N-methyl-benzamide]

IC50 [1, 5]: < 100 nM | IC50 [2, 6]: 100 to 1000 nM
Compound: CNC(=O)c1cccc(Cl)c1Nc1nc(Nc2ccc3c(c2)N(C)CCNC3)ncc1Cl [Example 460, 3-Chloro-2-[5-chloro-2-(1-methyl-2,3,4,5-tetrahydro-1H-benzo[e][1,4]diazepin-8-ylamino)-pyrimidin-4-ylamino]-N-methyl-benzamide]

IC50 [1, 5]: 100 to 1000 nM | IC50 [2, 6]: < 100 nM
Compound: CN1CCNCc2cc(Nc3ncc(Cl)c(Nc4ccccc4NS(C)(=O)=O)n3)ccc21 [Example 421, N-{2-[5-Chloro-2-(1-methyl-2,3,4,5-tetrahydro-1H-benzo[e][1,4]diazepin-7-ylamino)-pyrimidin-4-ylamino]-phenyl}-methanesulfonamide]

IC50 [1, 3]: 100 to 1000 nM | IC50 [2, 4]: < 100 nM
Compound: CNC(=O)C1C2C=CC(C2)C1Nc1nc(Nc2ccc3c(c2)CCC(N2CCOCC2)CC3)ncc1Cl (stereo not drawn) [Example 624, (2-exo-3-exo)-3-[5-Chloro-2-(7-morpholin-4-yl-6,7,8,9-tetrahydro-5H-benzocyclohepten-2-ylamino)-pyrimidin-4-ylamino]-bicyclo[2.2.1]hept-5-ene-2-carboxylic acid methylamide]

IC50 [1, 7]: < 100 nM | IC50 [2, 8]: 1000 to 10000 nM
Compound: CCN1C(=O)CN(C(C)=O)Cc2ccc(Nc3ncc(Cl)c(Nc4c(F)cccc4C(=O)NC)n3)cc21 [Example 1851, 2-[2-(4-Acetyl-1-ethyl-2-oxo-2,3,4,5-tetrahydro-1H-benzo[e][1,4]diazepin-8-ylamino)-5-chloro-pyrimidin-4-ylamino]-3-fluoro-N-methyl-benzamide]

IC50 [1, 9]: > 10000 nM | IC50 [2, 10]: < 100 nM
Compound: COc1cc2c(cc1Nc1ncc(Cl)c(Nc3cc(C#N)ccc3OC)n1)CCN(CC(N)=O)CC2 [Example 1154, 2-{7-[5-Chloro-4-(5-cyano-2-methoxy-phenylamino)-pyrimidin-2-ylamino]-8-methoxy-1,2,4,5-tetrahydro-benzo[d]azepin-3-yl}-acetamide]

IC50 [1, 9]: 100 to 1000 nM | IC50 [2, 10]: 100 to 1000 nM
Compound: COCCN1CCc2ccc(Nc3ncc(Cl)c(Nc4ccccc4OCC(N)=O)n3)cc2CC1 [Example 1241, 2-(2-{5-Chloro-2-[3-(2-methoxy-ethyl)-2,3,4,5-tetrahydro-1H-3-benzazepin-7-ylamino]-pyrimidin-4-ylamino}-phenoxy)-acetamide]

IC50 [1, 3]: < 100 nM | IC50 [2, 4]: < 100 nM
Compound: CNC(=O)c1ccccc1Nc1nc(Nc2ccc3c(c2)OCCN(C)C3=O)ncc1Cl [Example 514, 2-[5-chloro-2-(4-methyl-5-oxo-2,3,4,5-tetrahydro-benzo[f][1,4]oxazepin-8-ylamino)-pyrimidin-4-ylamino]-N-methyl-benzamide]

IC50 [1, 9]: < 100 nM | IC50 [2, 10]: < 100 nM
Compound: CNC(=O)c1cccc(F)c1Nc1nc(Nc2ccc3c(c2)CCN(CC(=O)N(C)C)CC3)ncc1Cl [Example 1369, 2-[5-Chloro-2-(3-dimethylcarbamoylmethyl-2,3,4,5-tetrahydro-1H-benzo[d]azepin-7-ylamino)-pyrimidin-4-ylamino]-3-fluoro-N-methyl-benzamide]

IC50 [1, 9]: > 10000 nM | IC50 [2, 10]: < 100 nM
Compound: COc1cc2c(cc1Nc1ncc(Cl)c(N[C@H]3[C@@H](C(N)=O)[C@@H]4C=C[C@H]3C4)n1)CCC(NCC(F)F)CC2 (single isomer, unassigned) [Example 1054]

IC50 [1, 5]: < 100 nM | IC50 [2, 6]: < 100 nM
Compound: CNC(=O)c1ccccc1Nc1nc(Nc2ccc3c(c2)CCC(=O)CC3)ncc1Cl [Example 172, 2-[5-Chloro-2-(7-oxo-6,7,8,9-tetrahydro-5H-benzocyclo-hepten-2-ylamino)-pyrimidin-4-ylamino]-N-methyl-benzamide]

IC50 [1, 5]: > 10000 nM | IC50 [2, 6]: > 10000 nM
Compound: CN1CCN(C)c2cccc(Nc3ncc(Cl)c(Nc4ccccc4NS(C)(=O)=O)n3)c2C1=O [Example 215, N-{2-[5-Chloro-2-(1,4-dimethyl-5-oxo-2,3,4,5-tetrahydro-1H-benzo[e][1,4]diazepin-6-ylamino)-pyrimidin-4-ylamino]-phenyl}-methanesulfonamide]

IC50 [1, 9]: > 10000 nM | IC50 [2, 10]: < 100 nM
Compound: COc1cc2c(cc1Nc1ncc(Cl)c(N[C@@H]3CCCC[C@H]3NS(C)(=O)=O)n1)CCN(CC(=O)N1CCCC1)CC2 [Example 1160, N-((1R,2R)-2-{5-Chloro-2-[8-methoxy-3-(2-oxo-2-pyrrolidin-1-yl-ethyl)-2,3,4,5-tetrahydro-1H-benzo[d]azepin-7-ylamino]-pyrimidin-4-ylamino}-cyclohexyl)-methanesulfonamide]

IC50 [1, 5]: 100 to 1000 nM | IC50 [2, 6]: < 100 nM
Compound: CNC(=O)c1ccccc1Nc1nc(Nc2cc3c(cc2OC)C(=O)N(C)CCC3)ncc1Cl [Example 107, 2-[5-Chloro-2-(8-methoxy-2-methyl-1-oxo-2,3,4,5-tetrahydro-1H-benzo[c]azepin-7-ylamino)-pyrimidin-4-ylamino]-N-methyl-benzamide]

IC50 [1, 3]: 100 to 1000 nM | IC50 [2, 4]: < 100 nM
Compound: COCCN1CCc2ccc(Nc3ncc(Cl)c(Nc4ccc(OC)c5c4C(=O)N(C)C5)n3)cc2CC1 [Example 936, 7-{5-Chloro-2-[3-(2-methoxy-ethyl)-2,3,4,5-tetrahydro-1H-3-benzazepin-7-ylamino]-pyrimidin-4-ylamino}-4-methoxy-2-methyl-2,3-dihydro-isoindol-1-one]

IC50 [1, 5]: > 10000 nM | IC50 [2, 6]: 100 to 1000 nM
Compound: CNC(=O)c1ccccc1Nc1nc(Nc2ccc(OC)c3c2N(C)C(=O)CCC3)ncc1Cl [Example 123, 2-[5-Chloro-2-(6-methoxy-1-methyl-2-oxo-2,3,4,5-tetrahydro-1H-benzo[b]azepin-9-ylamino)-pyrimidin-4-ylamino]-N-methyl-benzamide]

IC50 [1, 5]: 1000 to 10000 nM | IC50 [2, 6]: < 100 nM
Compound: CCN1C(=O)CCC(C)(C)c2cc(Nc3ncc(Cl)c(N[C@@H]4CCCC[C@H]4NS(C)(=O)=O)n3)ccc21 [Example 388, N-{(1R,2R)-2-[5-Chloro-2-(1-ethyl-5,5-dimethyl-2-oxo-2,3,4,5-tetrahydro-1H-benzo[b]azepin-7-ylamino)-pyrimidin-4-ylamino]-cyclohexyl}-methanesulfonamide]

IC50 [1, 3]: < 100 nM | IC50 [2, 4]: < 100 nM
Compound: CNC(=O)c1cc(OC)ccc1Nc1nc(Nc2ccc3c(c2)CCN(CCOC)CC3)ncc1Cl [Example 618, 2-{5-Chloro-2-[3-(2-methoxy-ethyl)-2,3,4,5-tetrahydro-1H-benzo[d]azepin-7-ylamino]-pyrimidin-4-ylamino}-5-methoxy-N-methyl-benzamide]

IC50 [1, 5]: < 100 nM | IC50 [2, 6]: < 100 nM
Compound: CNC(=O)c1ccccc1Nc1nc(Nc2ccc3c(c2)N(C)CCNC3=O)ncc1Cl [Example 414, 2-[5-Chloro-2-(1-methyl-5-oxo-2,3,4,5-tetrahydro-1H-benzo[e][1,4]diazepin-8-ylamino)-pyrimidin-4-ylamino]-N-methylbenzamide]

IC50 [1, 7]: 100 to 1000 nM | IC50 [2, 8]: 100 to 1000 nM
Compound: CNC(=O)c1sccc1Nc1nc(Nc2ccc3c(c2)OCCCN3C(=O)CN2CCCC2)ncc1Cl [Example 1715, 3-{5-Chloro-2-[9-(2-pyrrolidin-1-yl-acetyl)-6,7,8,9-tetrahydro-5-oxa-9-aza-benzocyclohepten-3-ylamino]-pyrimidin-4-ylamino}-thiophene-2-carboxylic acid methylamide]

IC50 [1, 9]: > 10000 nM | IC50 [2, 10]: < 100 nM
Compound: COc1cc2c(cc1Nc1ncc(Cl)c(Nc3ccc(N4CCOCC4)cc3OC)n1)CCN(Cc1ncco1)CC2 [Example 1180, 5-Chloro-N*4*-(2-methoxy-4-morpholin-4-yl-phenyl)-N*2*-(8-methoxy-3-oxazol-2-ylmethyl-2,3,4,5-tetrahydro-1H-benzo[d]azepin-7-yl)-pyrimidine-2,4-diamine]

IC50 [1, 5]: > 10000 nM | IC50 [2, 6]: < 100 nM
Compound: COCCN1C(=O)CCCc2c1ccc(Nc1ncc(Cl)c(N[C@@H]3[C@H](C(N)=O)[C@H]4C=C[C@@H]3C4)n1)c2OC [Example 128, (2-exo,3-exo)-3-{5-Chloro-2-[6-methoxy-1-(2-methoxy-ethyl)-2-oxo-2,3,4,5-tetrahydro-1H-benzo[b]azepin-7-ylamino]-pyrimidin-4-ylamino}-bicyclo[2.2.1]hept-5-ene-2-carboxylic acid amide]
